According to ChEMBL document CHEMBL4118151, “Highly potent activity of isopulegol-derived substituted octahydro-2H-chromen-4-ols against influenza A and B viruses” (Bioorg Med Chem Lett, 2018):
pIC50: −log10 of the molar value. The source made the active and inactive calls. No cut-off for these calls is given here.

Key:
[1] = Cytotoxicity against MDCK cells after 48 hrs by MTT assay; format: cell-based, Canis lupus familiaris; details: dog
[2] = Selectivity index, ratio of CC50 for MDCK cells to IC50 for amantadine/oseltamivir-susceptible Influenza A virus (A/mallard/Pennsylvania/10218/84(H5N2)); format: toxicity; details: dog, read-out: Ratio CC50/IC50
[3] = Selectivity index, ratio of CC50 for MDCK cells to IC50 for amantadine/oseltamivir-susceptible Influenza A virus (A/mallard/Netherlands/12/00(H7N3)); format: toxicity; details: dog, read-out: Ratio CC50/IC50
H3N2 subtype = test: Antiviral activity against amantadine/oseltamivir-susceptible Influenza A virus (A/Aichi/2/68(H3N2)) infected in MDCK cells assessed as inhibition of viral replication after 48 hrs by hemagglutination test; format: functional, organism-based; details: A/Aichi/2/1968(H3N2)
Influenza A virus [4] = test: Antiviral activity against amantadine/oseltamivir-susceptible Influenza A virus (A/Singapore/1/57(H2N2)) infected in MDCK cells assessed as inhibition of viral replication after 48 hrs by hemagglutination test; format: functional, organism-based, Influenza A virus (A/Singapore/1/1957(H2N2))
Influenza A virus [5] = test: Antiviral activity against Influenza A virus (A/Puerto Rico/8/34(H1N1)) infected in MDCK cells assessed as inhibition of viral replication at 500 uM up to 2 hrs post-infection by hemagglutination test; format: functional, organism-based; details: A/Puerto Rico/8/1934(H1N1)
Influenza A virus [6] = test: Antiviral activity against amantadine/oseltamivir-susceptible Influenza A virus (A/mallard/Pennsylvania/10218/84(H5N2)) infected in MDCK cells assessed as inhibition of viral replication after 48 hrs by hemagglutination test; format: functional, organism-based, Influenza A virus (A/mallard/Pennsylvania/10218/1984(H5N2))
Influenza A virus [7] = test: Antiviral activity against amantadine/oseltamivir-susceptible Influenza A virus (A/mallard/Netherlands/12/00(H7N3)) infected in MDCK cells assessed as inhibition of viral replication after 48 hrs by hemagglutination test; format: functional, organism-based, Influenza A virus (A/mallard/Netherlands/12/2000(H7N3))
[8] = Selectivity index, ratio of CC50 for MDCK cells to IC50 for amantadine/oseltamivir-susceptible Influenza A virus (A/Aichi/2/68(H3N2)); format: toxicity; details: dog, read-out: Ratio CC50/IC50
[9] = Selectivity index, ratio of CC50 for MDCK cells to IC50 for amantadine/oseltamivir-susceptible Influenza A virus (A/Singapore/1/57(H2N2)); format: toxicity; details: dog, read-out: Ratio CC50/IC50

SMILES | CC50 at 48 h [1] [µM] | also measured
C[C@@H]1CC[C@@H]2[C@H](C1)OC1(CCCC1)C[C@@]2(C)O | 810 | 
C[C@@H]1CC[C@@H]2[C@H](C1)OC(C)(C)CC2(C)O (some centres not stated) | 72.2 | 
NC(=O)c1ncn([C@@H]2O[C@H](CO)[C@@H](O)[C@H]2O)n1 [RIBAVIRIN] | > 2130 | 
CCC[C@H]1C[C@@](C)(O)[C@@H]2CC[C@@H](C)C[C@H]2O1 | > 1330 | 
C[C@@H]1CC[C@@H]2[C@H](C1)OC1(CCCCC1)C[C@@]2(C)O | 627 | 
CCC1(CC)C[C@@](C)(O)[C@@H]2CC[C@@H](C)C[C@@H]2O1 | 188 | 
C[C@@H]1CC[C@@H]2[C@H](C1)OC1(CCCCCC1)C[C@@]2(C)O | 210 | 
CC(N)C12CC3CC(CC(C3)C1)C2 (configuration not stated) [RIMANTADINE] | 319 | 
C[C@@H]1CC[C@@H]2[C@H](C1)OC1(CCCCCCC1)C[C@@]2(C)O | 379 | 
C[C@@H]1CC[C@@H]2[C@@H](C1)OC(C)(C)C[C@@]2(C)O | > 1420 | selectivity ratio [2]: 9; selectivity ratio [3]: 2; pIC50 (H3N2 subtype): < 2.85; pIC50 (Influenza A virus [4]): 6.05; inhibition (Influenza A virus [5]): Active; pIC50 (Influenza A virus [6]): 3.79; pIC50 (Influenza A virus [7]): 3.21; selectivity ratio [8]: 1; selectivity ratio [9]: 1570
C[C@@H]1CC[C@@H]2[C@@H](C1)OC(C)(C)C[C@]2(C)O | 816 | 
CCCC1(CCC)C[C@@](C)(O)[C@@H]2CC[C@@H](C)C[C@@H]2O1 | 131 | 
C[C@@H]1CC[C@@H]2[C@@H](C1)O[C@@H](C1CCCCC1)C[C@@]2(C)O | 24.2 | 
